In US8916717B2, “Dioxaspiroketal derivatives, process for their preparation and uses thereof” (Consiglio Nazionale Delle Ricerche, priority 2006, dated 2014):
Like-named read-outs stand apart in the source and are kept apart here.

Experiments:
Cδ protein kinase = Cδ protein kinase (Homo sapiens, UniProt Q05655); details: Watters et al., 1998; cited from earlier work
MCF-7 cells = assay: Cell proliferation and viability determination (trypan blue dye exclusion cell counts); format: cell-based, human; details: 1.25 μg/ml
Description: The study has been carried out using representative tumor cell lines with different histological origin: MCF-7 breast carcinoma (human), M14 (human) and B16 (murine) melanomas, H125 (human) pulmonary carcinoma, HT-29 (human) colon carcinoma, HL-60 (human) promyelocytic leukemia.
All cell lines have been cultured in RPMI-1640 (Hyclone Europe, Cramlington, UK) medium supplemented with 10% of heat inactivated (56° C., 30 minutes) bovine fetal serum (Hyclone Laboratories, Logan, Utah), 2 mM L-glutamine and antibiotics (Life Technologies Ltd., Paisley, Scotland) (complete medium, CM). Cells have been stored at 37° C. in humidified atmosphere with 5% CO2.
Cell suspensions (HL-60) have been harvested and counted. Plastic adherent cells, in semi-confluence condition, have been detached by a short exposure at 0.025% trypsin with 0.01% EDTA and counted.
All used tumor cells have been harvested, suspended in CM and seeded in 24-well plates at 10^5 cell concentration in a final volume of 2 ml/well. For adherent cells a pre-incubation for 18 hours has been carried out in order to promote the adhesion to plastic. […] The cell proliferation, viability and death have been determined by means of cell counts in trypan blue (dye exclusion test) using a hemocytometer.

[1] = system: peripheral blood lymphocytes (PBL) from healthy donors; assay: Toxicity on not tumor healthy human cells, supravital propidium iodide method; format: cell-based; details: for % apoptotic / % necrotic / % viable: PBL, 48 hours
Description: […] After 24 and 48 hours of culture, treated lymphocytes have been analyzed using supravital propidium iodide method (PI).
IN short this system is based on the use of propidium iodide, a fluorescent marker for the cellular DNA that normally penetrates only into the fixed or permeable made cells. PI supravital method is based on the principle that supravital exposure to propidium (high concentration of propidium for some hours at 37° C.) of not previously permeable made cells identifies in the population apoptotic cells clearly distinguishing them from necrotic or viable ones. Cells labeled with 40 μg/ml of propidium iodide directly in culture plates, are incubated at 37° for 1 hour and 30 minutes and analyzed using the flow cytometer.

M14 cell line (melanoma) = assay: Cell apoptosis and necrosis by flow cytometry analysis; format: cell-based, human
Description: (§1) For apoptosis and cellular cycle analysis, control or various concentration MS treated cells have been removed from the culture by means of trypsinization, re-suspended in PBS, washed two times with cold PBS and fixed with 50% of acetone and methanol (1:4) in PBS at 4° C. Fixed cells then were washed in PBS and stained with propidium iodide 50 μg/ml (PI) in the presence of RNase A 100 KU/ml.
Samples have been analyzed using a FACScan cytometer and fluorescence propidium red signals have been registered on linear scale. Cell fluorescence has been analyzed using a FACScan flow cytometer (Becton Dickinson, USA) using a 488 nm emitting argon laser. Data have been analyzed electronically excluding detritus and cell aggregates. In the red fluorescence, that is proportional to the DNA cell content, the apoptotic cells are represented by hypodiploid peak (cells with DNA fractioned content), easy distinguishable from the healthy cell DNA diploid peak. The fraction of the apoptotic cells is calculated integrating the pre-G1 peak. […]
For the necrosis evaluation, an aliquot of not fixed cells (1×10^6) was incubated with 40 μg/ml PI for 1.5 hour at 37° C. The samples, directly in their coloring solution, have been then analyzed using FACScan flow. […] Apoptotic cells have been detected by FSC/PI dot plot as PI^dim peak, meanwhile P^− and PI^bright represent viable and necrotic cells, respectively.

telomerase = target: T1, telomerase (Homo sapiens, UniProt O14746); assay: Telomerasic activity (TeloTAGGG Telomerase PCR ELISA) in extracts of treated tumor cells; format: cell-based; details: 48 hours; for telomerase enzymatic activity: 1.25 μg/ml; for inhibition at 12.5 µg/mL / inhibition at 25 µg/mL: read-out: telomerase inhibition in comparison to control
T1 construct: endogenous in cells; host or cells: MCF-7, H-125 and M14 tumour cells
T1 sequence (O14746 whole entry): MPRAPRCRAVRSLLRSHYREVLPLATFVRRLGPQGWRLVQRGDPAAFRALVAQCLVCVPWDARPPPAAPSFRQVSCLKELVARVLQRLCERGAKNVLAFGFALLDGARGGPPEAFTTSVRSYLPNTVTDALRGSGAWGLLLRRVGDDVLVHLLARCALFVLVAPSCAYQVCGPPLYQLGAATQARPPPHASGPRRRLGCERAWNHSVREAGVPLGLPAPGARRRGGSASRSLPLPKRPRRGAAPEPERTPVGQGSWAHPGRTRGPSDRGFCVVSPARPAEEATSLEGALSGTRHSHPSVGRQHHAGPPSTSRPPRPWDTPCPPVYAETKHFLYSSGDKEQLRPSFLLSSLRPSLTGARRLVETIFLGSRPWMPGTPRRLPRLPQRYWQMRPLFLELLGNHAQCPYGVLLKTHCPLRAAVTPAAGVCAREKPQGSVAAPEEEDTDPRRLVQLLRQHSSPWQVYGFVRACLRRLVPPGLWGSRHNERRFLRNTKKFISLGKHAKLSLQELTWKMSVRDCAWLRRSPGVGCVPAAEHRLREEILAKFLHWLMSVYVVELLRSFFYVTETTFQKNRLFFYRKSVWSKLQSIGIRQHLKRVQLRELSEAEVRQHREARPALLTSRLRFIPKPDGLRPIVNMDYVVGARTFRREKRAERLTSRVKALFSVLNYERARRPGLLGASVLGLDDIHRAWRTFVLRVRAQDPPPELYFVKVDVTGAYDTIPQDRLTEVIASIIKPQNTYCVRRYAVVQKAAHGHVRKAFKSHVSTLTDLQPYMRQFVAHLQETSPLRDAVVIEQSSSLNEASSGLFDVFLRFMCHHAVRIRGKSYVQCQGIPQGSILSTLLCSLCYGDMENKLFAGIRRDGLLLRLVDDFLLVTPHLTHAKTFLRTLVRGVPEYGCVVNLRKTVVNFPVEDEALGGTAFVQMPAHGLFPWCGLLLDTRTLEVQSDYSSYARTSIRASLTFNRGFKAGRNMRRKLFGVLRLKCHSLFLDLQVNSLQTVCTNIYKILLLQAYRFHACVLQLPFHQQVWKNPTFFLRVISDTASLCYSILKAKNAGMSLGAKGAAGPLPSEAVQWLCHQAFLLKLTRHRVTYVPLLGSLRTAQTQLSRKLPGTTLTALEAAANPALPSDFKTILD
Description: Telomerasic activity was evaluated using TeloTAGGG Telomerase PCR ELISA kit, photometric enzymatic immunoassay from Roche (Mannheim, Germany). At time of the test, frozen pellet was lysed directly in the tests-tube using 80 μl of cold extraction buffer. Telomerase amplification was carried out by PCR (30 cycles, 94° C. 30 sec; 52° C. 30 sec; 72° C. 45 sec). Telomerasic activity was determined on the cell extracts according to the protocol recommended by the supplier. Sample absorbance (OD, optical density) was measured at 450 nm in a multi-well plate reader (SpectraCount, Pakard, Meriden, Conn., USA). In order to evaluate telomerasic activity, MCF-7, H-125 and M14 tumor cells were treated for 48 hours with serial doses of methyl-spirane (from 1.25 μg/ml to 50 μg/ml) as above described. Subsequently, the cells have been detached from culture plates by trypsinization, centrifuged, pelletized, and stored at −80° C. until the use.
As to telomerase, the cells have been exposed in vitro at 1.25, 12.5, 25, 50 μg/ml of methyl-spirane and evaluated for telomerasic activity (TLMA) using ELISA assay, 48 hours after the treatment. […] Particularly, in the FIG. 10, panels A-C, the effects at various concentrations (1.25, 12.5, 25, 50) of methyl-spirane on MCF-7, H-125 and M14 cell, lines after 48 hours of treatment are shown.

[2] = system: M14 malignant melanoma cells; assay: Cell cycle by flow cytometry analysis (propidium iodide); format: cell-based, human; details: M14, starting from 10 μg/ml dose, after 24 hours of treatment
Description: as §1
Samples have been analyzed using a FACScan cytometer and fluorescence propidium red signals have been registered on linear scale. Cell fluorescence has been analyzed using a FACScan flow cytometer (Becton Dickinson, USA) using a 488 nm emitting argon laser. Data have been analyzed electronically excluding detritus and cell aggregates. In the red fluorescence, that is proportional to the DNA cell content, the apoptotic cells are represented by hypodiploid peak (cells with DNA fractioned content), easy distinguishable from the healthy cell DNA diploid peak. The fraction of the apoptotic cells is calculated integrating the pre-G1 peak. This cell fraction is representative for those having a PI decreasing coloration, considered a marker of DNA fragmentation, phenomenon associated to cell death by apoptosis. The analysis of cell cycle distribution after 24, 48 and 72 hours of MS treatment has been carried out using ModFitLT software (Becton Dickinson Immunocytometry Systems).

[3] = system: 60 haematological and epithelial human cancer cell lines of NCI panel; details: 60 human cancer cell lines, NCI panel (Uckun et al., 2000); cited from earlier work

Cδ protein kinase, sequence (Q05655 whole entry): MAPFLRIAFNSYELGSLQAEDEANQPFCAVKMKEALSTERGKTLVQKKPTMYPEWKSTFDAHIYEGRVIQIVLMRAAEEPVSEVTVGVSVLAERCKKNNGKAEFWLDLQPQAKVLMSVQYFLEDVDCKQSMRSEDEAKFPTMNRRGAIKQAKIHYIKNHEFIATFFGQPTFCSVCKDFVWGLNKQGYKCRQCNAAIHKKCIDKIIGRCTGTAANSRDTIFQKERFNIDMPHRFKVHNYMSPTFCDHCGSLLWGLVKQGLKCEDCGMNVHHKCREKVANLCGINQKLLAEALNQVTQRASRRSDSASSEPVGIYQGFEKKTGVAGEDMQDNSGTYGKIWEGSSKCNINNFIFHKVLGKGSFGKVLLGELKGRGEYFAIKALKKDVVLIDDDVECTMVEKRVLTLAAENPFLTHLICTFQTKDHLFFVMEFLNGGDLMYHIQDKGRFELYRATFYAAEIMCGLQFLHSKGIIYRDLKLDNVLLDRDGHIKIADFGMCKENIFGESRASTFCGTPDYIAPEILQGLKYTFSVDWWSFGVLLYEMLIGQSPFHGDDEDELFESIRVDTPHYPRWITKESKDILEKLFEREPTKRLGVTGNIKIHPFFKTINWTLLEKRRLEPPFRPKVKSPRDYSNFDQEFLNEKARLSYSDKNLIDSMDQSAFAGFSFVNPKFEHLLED

C/C=C/C(=O)CC1CCC(C)C(CC(=O)NCC(O)C(C)C(=O)NCCCC2OC3(CCC2C)COCC(CCC(C)/C=C(\C)C(C)O)C3)O1 (centres unmarked) [B[…]]
activation of Cδ protein kinase (PKCs isoform) (Cδ protein kinase): specific activator

CC1CCCC2(OC(O)C=CC2=O)O1 (centres unmarked) [methyl-spirane, 1,7-dioxaspiro[5,5]-8-methyl-undecen-3-en-5-oxa-2-ol]
effect on tumour cell growth in vitro (MCF-7 cells): inhibiting effects
% apoptotic ([1]; 3.15 μg/ml): 2.5%
% necrotic ([1]; 3.15 μg/ml): 16%
% viable ([1]; 3.15 μg/ml): 81.5%
% apoptotic ([1]; 6.25 μg/ml): 6.4%
% necrotic ([1]; 6.25 μg/ml): 15.6%
% viable ([1]; 6.25 μg/ml): 78%
% apoptotic ([1]; 12.5 μg/ml): 30.1%
% necrotic ([1]; 12.5 μg/ml): 40.0%
% viable ([1]; 12.5 μg/ml): 29.7%
% apoptotic ([1]; 25 μg/ml): 33.1%
% necrotic ([1]; 25 μg/ml): 56.6%
% viable ([1]; 25 μg/ml): 10.0%
% apoptotic ([1]; 50 μg/ml): 21.7%
% necrotic ([1]; 50 μg/ml): 70.0%
% viable ([1]; 50 μg/ml): 8.2%
% apoptotic ([1]; 100 μg/ml): 15.0%
% necrotic ([1]; 100 μg/ml): 84.0%
% viable ([1]; 100 μg/ml): 1.0%
necrosis with respect to the control on human lymphocytes ([1]; low concentrations (for example, 1.25 μg/ml)): no increase of necrosis
apoptosis induction (M14 cell line (melanoma); M14, 25 μg/ml, after 24 hours): apoptosis is already observed
concentration-dependent increase of apoptosis (M14 cell line (melanoma); M14, concentrations higher than 1.25 μg/ml, after 72 hours of treatment): 30-50%
telomerase enzymatic activity (telomerase; H-125): very scarcely influenced
telomerase enzymatic activity (telomerase; MCF-7): very scarcely influenced
inhibition at 12.5 µg/mL (telomerase; 12.5 μg/ml, M14): 61%
inhibition at 25 µg/mL (telomerase; 25 μg/ml, M14): 75%
inhibition at 50 µg/mL (telomerase; 50 μg/ml, two cell lines not named (of MCF-7, H-125, M14)): 80%
telomerasic activity (TLMA) (telomerase; 1.25, 12.5, 25, 50 μg/ml, all the examined cell lines): concentration-dependent reduction
inhibition at 12.5 µg/mL (telomerase; MCF7, 12.5 μg/ml, MCF-7): 43%
inhibition at 25 µg/mL (telomerase; MCF7, 25 μg/ml, MCF-7): 64%
inhibition at 12.5 µg/mL (telomerase; NCI-H125, 12.5 μg/ml, H-125): 50%
inhibition at 25 µg/mL (telomerase; NCI-H125, 25 μg/ml, H-125): 68%
effect on cell cycle (G1 step) [2]: increment of the G1 step

spongistatin 1
cytotoxicity IC50 [3]: sub-nanomolar
